Measured values from PMC9481026 (PLoS ONE, 2022).
pEC50, pIC50: −log10 of the molar value. ≈ marks a conversion by molar mass, not a printed value. Read-outs that look alike come from different tables or passages of the source.

Assays:
RVFV MP-12 = test: microbe, parasite or virus in culture; format: cell-based, Rift Valley fever virus; details: for pEC50: read-out: Estimated EC50
RVFV strain MP-12 [1] = test: microbe, parasite or virus in culture; format: cell-based, Rift Valley fever virus
Human RNase H1 = molecular target: T1, Human RNase H1 (Homo sapiens, UniProt O60930); test: biochemical
T1 construct: made in house; host or cells: E. coli
T1 sequence (O60930 1-286): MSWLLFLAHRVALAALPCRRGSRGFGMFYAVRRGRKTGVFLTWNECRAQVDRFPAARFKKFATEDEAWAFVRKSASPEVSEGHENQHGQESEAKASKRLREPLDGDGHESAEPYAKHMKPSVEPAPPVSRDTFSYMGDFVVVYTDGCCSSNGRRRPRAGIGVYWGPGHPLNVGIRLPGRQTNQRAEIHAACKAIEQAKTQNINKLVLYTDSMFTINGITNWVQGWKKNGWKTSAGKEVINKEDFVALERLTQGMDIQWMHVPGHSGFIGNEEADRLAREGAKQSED

C. neoformans = test: microbe, parasite or virus in culture; format: cell-based; details: for MIC80: Cryptococcus neoformans, read-out: C. neoformans (MIC80, μM)
Staphylo-coccus spp. = test: organism not typed; format: cell-based
in vitro = details: African green monkey
RVFV strain MP-12 [2] = test: microbe, parasite or virus in culture; format: cell-based, Rift Valley fever virus; details: Rift Valley fever virus, A549, 24 h, read-out: A549 EC50
LACV = test: microbe, parasite or virus in culture; format: cell-based, La Crosse virus; details: La Crosse virus, Vero C1008, 24 h, read-out: LACV EC50
ZIKV = test: microbe, parasite or virus in culture; format: cell-based, Zika virus; details: Zika virus, Vero C1008, 48 h, read-out: ZIKV EC50
[3] = read-out: Human RNase H1 (IC50)
[4] = Rift Valley fever virus, Vero, 24 h

Row | SMILES | pEC50 (RVFV MP-12) | pIC50 (Human RNase H1; [3]) | C. neoformans (MIC80, μM) (C. neoformans) [µM] | CC50 (Vero cells) [µM] | further results
1 | CCOC(=O)c1sc(NC(=O)CSc2nnc(Cc3ccccc3)o2)c(C#N)c1C [Compound 6] | < 3.92 | – | – | – | –
2 | O=c1c(O)c(-c2ccc(O)c(O)c2)oc2cc(O)c(O)c(O)c12 [Compound 7, Quercetagetin] | – | – | – | – | pEC50 (RVFV MP-12; Rift Valley fever virus, Vero): < 3.92
3 | NC(=O)c1c(N)sc2c1CCCCC2 [Compound 22] | < 3.92 | – | – | – | –
4 | CC(C)c1cccc(=O)c(O)c1 [Compound 47, β-thujaplicin, reference compound] | – | – | – | – | pEC50 (RVFV MP-12; Rift Valley fever virus, Vero): < 3.92
5 | CC(C)c1ccc(O)c(=O)cc1 [Compound 48, γ -thujaplicin, reference compound] | – | – | – | – | pEC50 (RVFV MP-12; Rift Valley fever virus, Vero): < 3.92
6 | Cc1cc(O)c(=O)c(O)cc1C(=O)c1ccccc1 [Compound 111] | – | 4.32 | 36 | > 120 | pEC50 (RVFV strain MP-12 [1]; read-out: RVFV (EC50)): 4.72
7 | Cc1cc(O)c(=O)c(O)cc1-c1ccccc1 [Compound 113] | – | 3.76 | 24 | > 120 | pEC50 (RVFV strain MP-12 [1]; read-out: RVFV (EC50)): 4.99
8 | Cc1cc(O)c(=O)c(O)cc1C(=O)c1ccc(-c2ccccc2)cc1 [Compound 118] | – | < 3.30 | 15 | > 120 | pEC50 (RVFV strain MP-12 [1]; read-out: RVFV (EC50)): 4.96
9 | Cc1cc(O)c(=O)c(O)cc1C(=O)C1CCCCC1 [Compound 120] | – | 4.09 | 12 | > 120 | pEC50 (RVFV strain MP-12 [1]; read-out: RVFV (EC50)): 4.81
10 | O=C(O)CC(=O)CC(=O)c1cccs1 [Compound 129] | < 3.92 | – | – | – | –
11 | O=C1c2ccccc2C(=O)N1O [Compound 138] | < 3.92 | – | – | – | –
12 | COC(=O)c1c(C)cc(O)c(=O)c(O)c1O [Compound 196] | – | 3.39 | – | > 120 | pEC50 (RVFV strain MP-12 [1]; read-out: RVFV (EC50)): 4.62; Staphylo-coccus spp. (MIC80, μM) (Staphylo-coccus spp.): 67 µM; CC50 (HepDES19): 6 µM
13 | CC1=CC(O)N(O)C(O)=C1C(C)=Nc1ccccc1N (stereo not drawn) [Compound 208] | 4.85 | 3.71 | 30 | > 120 | pEC50 (RVFV strain MP-12 [1]; read-out: RVFV (EC50)): < 3.92; CC50 (HepDES19): 14.4 µM
14 | Cc1ccc(O)c(=O)c(O)c1 [Compound 210] | 5.10 | 4.07 | 15 | > 120 | pEC50 (RVFV strain MP-12 [1]; read-out: EC50): 4.93
15 | Cc1cc(O)c(=O)c(O)cc1-c1cccc(-c2cccc3ccccc23)c1 [Compound 234] | 4.72 | – | – | > 120 | –
16 | Cc1cc(O)c(=O)c(O)cc1C(=O)c1ccc(-c2ccncc2)cc1 [Compound 260] | – | 3.56 | 50 | > 120 | pEC50 (RVFV strain MP-12 [1]; read-out: RVFV (EC50)): 4.50; CC50 (HepDES19): 45 µM
17 | O=c1c(O)ccc(-c2ccco2)cc1O [Compound 265] | – | 4.24 | 11 | > 120 | pEC50 (RVFV strain MP-12 [1]; read-out: RVFV (EC50)): 4.81; Staphylo-coccus spp. (MIC80, μM) (Staphylo-coccus spp.): 30 µM
18 | Cc1cc(O)c(=O)c(O)cc1S(=O)(=O)c1ccccc1 [Compound 336] | – | – | – | – | pEC50 (RVFV strain MP-12 [1]; [4]): 5.05; pEC50 (RVFV MP-12; Rift Valley fever virus, Vero): 5.52; pIC50 (Human RNase H1): 4.07; MIC80 (C. neoformans): 50 µM (≈ 14.6 µg/mL); CC50 (Vero cells; African green monkey): 65.8 µM; CC50 (in vitro; CC50): 70 µM
19 | Cc1ccc(/C=C/C(=O)c2ccccc(=O)c2O)cc1 [Compound 340] | 5.52 | < 3.30 | 49 | 70 | pEC50 (RVFV strain MP-12 [1]; read-out: EC50): 4.56; CC50 (HepDES19): 18.7 µM
20 | O=C(/C=C/c1cccc(Br)c1)c1ccccc(=O)c1O [Compound 341] | – | – | – | – | pEC50 (RVFV strain MP-12 [1]; [4]): 4.60; pEC50 (RVFV MP-12; Rift Valley fever virus, Vero): 5.70; pIC50 (Human RNase H1): < 3.30; MIC80 (Staphylo-coccus spp.; read-out: Staphylo-coccus spp. (MIC80, μM)): 44 µM (≈ 14.6 µg/mL); MIC80 (C. neoformans): 24 µM (≈ 7.95 µg/mL); CC50 (in vitro; CC50): > 120 µM

Row | SMILES | pEC50 (RVFV MP-12) | pIC50 (Human RNase H1; [3]) | C. neoformans (MIC80, μM) (C. neoformans) [µM] | CC50 (Vero cells) [µM] | further results
21 | COc1ccc(/C=C/C(=O)c2ccccc(=O)c2O)cc1 [Compound 342] | 5.70 | < 3.30 | 24 | > 120 | pEC50 (RVFV strain MP-12 [1]; read-out: EC50): 4.26; CC50 (HepDES19): 30.4 µM
22 | CSc1cccc(O)c(=O)c1O [Compound 385] | – | 3.75 | 24 | > 120 | pEC50 (RVFV strain MP-12 [1]; read-out: RVFV (EC50)): 4.60; CC50 (HepDES19): 100 µM
23 | CC(=Nc1ccccc1F)c1c(C)cc(=O)n(O)c1O [Compound 516] | 4.72 | – | – | > 120 | –
24 | COc1ccc(CON=C(C)c2c[nH]c(=O)[nH]c2=O)cc1 [Compound 522] | < 6.00 | – | – | 1 | –
25 | Cc1cc(O)c(=O)c(O)cc1C(=O)NCc1ccc(-c2ccccc2)cc1 [Compound 539] | 5.00 | 3.98 | 4.5 | – | pEC50 (RVFV strain MP-12 [1]; read-out: EC50): 4.73; Staphylo-coccus spp. (MIC80, μM) (Staphylo-coccus spp.): 38 µM; CC50 (HepDES19): 3.6 µM
26 | COc1ccc(Cl)cc1C(=O)Sc1cccccc1=O [Compound 681] | < 5.70 | – | – | 2 | –
27 | CCCCCCS(=O)(=O)c1ccc(S(=O)(=O)CCCCCC)c(O)c(=O)c1O [Compound 700] | – | – | – | – | Estimated EC50 (RVFV MP-12): inactive; pEC50 (RVFV MP-12; Rift Valley fever virus, Vero): < 3.92; CC50 (in vitro; Estimated CC50): > 120 µM
28 | O=c1c(O)c(SCc2ccccc2)ccc(SCc2ccccc2)c1O [Compound 703] | 5.05 | 4.21 | 7.0 | – | pEC50 (RVFV strain MP-12 [1]; read-out: EC50): 4.79; Staphylo-coccus spp. (MIC80, μM) (Staphylo-coccus spp.): 13 µM; CC50 (HepDES19): 8.2 µM
29 | Cc1cc(O)c(=O)c(O)cc1C(=O)NCCc1ccccc1 [Compound 710] | 4.77 | – | – | > 120 | –
30 | Cc1cc(O)c(=O)c(O)cc1C(=O)Nc1ccc(F)cc1F [Compound 711] | 4.77 | – | – | > 120 | –
31 | Cc1cc(O)c(=O)c(O)cc1C(=O)N1CCSC1 [Compound 712] | < 4.70 | – | – | 20 | –
32 | Cc1cc(O)c(=O)c(O)cc1C(=O)Nc1cccc(Cc2ccccc2)c1 [Compound 799] | 4.77 | – | – | 62 | –
33 | Cc1ccc(CNC(=O)c2cc(O)c(=O)c(O)cc2C)c(C)c1 [Compound 809] | 4.77 | – | – | 64 | –
34 | Cc1cc(O)c(=O)c(O)cc1C(=O)Nc1cccc(OCc2ccccc2)c1 [Compound 836] | 4.89 | – | – | > 120 | –
35 | Cc1ccc(Sc2cccc(O)c(=O)c2O)cc1 [Compound 838] | 5.10 | 4.00 | 1.0 | – | pEC50 (RVFV strain MP-12 [1]; read-out: EC50): 4.90; CC50 (HepDES19): 18.6 µM
36 | Cc1cc(O)c(=O)c(O)cc1C(=O)N[C@@H](CCC(=O)OC(C)(C)C)C(=O)OC(C)(C)C [Compound 867] | – | – | – | – | pEC50 (RVFV strain MP-12 [1]; [4]): 5.06; pEC50 (RVFV strain MP-12 [1]; Rift Valley fever virus, Vero, read-out: Vero EC50): 5.06; pEC50 (RVFV MP-12; Rift Valley fever virus, Vero): 5.18; pEC50 (RVFV strain MP-12 [2]): 4.48; pEC50 (LACV): < 3.92; pEC50 (ZIKV): < 3.92; MIC80 (C. neoformans): 9 µM (≈ 3.94 µg/mL); CC50 (in vitro; CC50): > 120 µM; CC50 (in vitro; Vero CC50): > 120 µM
37 | Cc1cc(O)c(=O)c(O)cc1C(=O)N1CCN(C(=O)C2COc3ccccc3O2)CC1 (stereo not drawn) [Compound 876] | – | – | – | > 120 | –
38 | Cc1cc(O)c(=O)c(O)cc1C(=O)N1CCN(c2ccc([N+](=O)[O-])c3nonc23)CC1 [Compound 920] | 4.72 | – | – | > 120 | –
39 | Cc1cc(O)c(=O)c(O)cc1C(=O)NCc1ccc(N2CCCC2)cc1 [Compound 1019] | 4.72 | – | – | > 120 | –
